Source: patent US20260234157A1, “COMPOUND AND METHOD FOR TARGETED DEGRADATION OF ANDROGEN RECEPTOR” (Gan & Lee Pharmaceuticals Co., Ltd., priority 2023, published 2026)
Positions count from the first letter of the chain named.

Assays:
Assay type in all cases: cell-based
AR protein [1] = target: T1, AR protein (Homo sapiens, UniProt P10275); assay: Degradation of AR protein in VCaP cells (Western blot); settings: 8 hours; for inhibition at 0.01 µM: compound at 10 nM, read-out: Degradation rate of the AR protein in VCaP cells, 10 nM (%); for inhibition at 0.1 µM: compound at 100 nM, read-out: Degradation rate of the AR protein in VCaP cells, 100 nM (%)
T1 construct: degradation activity of the compounds disclosed in the present disclosure on AR protein in VCaP cells; host or cells: VCaP
T1 sequence (P10275 1-920): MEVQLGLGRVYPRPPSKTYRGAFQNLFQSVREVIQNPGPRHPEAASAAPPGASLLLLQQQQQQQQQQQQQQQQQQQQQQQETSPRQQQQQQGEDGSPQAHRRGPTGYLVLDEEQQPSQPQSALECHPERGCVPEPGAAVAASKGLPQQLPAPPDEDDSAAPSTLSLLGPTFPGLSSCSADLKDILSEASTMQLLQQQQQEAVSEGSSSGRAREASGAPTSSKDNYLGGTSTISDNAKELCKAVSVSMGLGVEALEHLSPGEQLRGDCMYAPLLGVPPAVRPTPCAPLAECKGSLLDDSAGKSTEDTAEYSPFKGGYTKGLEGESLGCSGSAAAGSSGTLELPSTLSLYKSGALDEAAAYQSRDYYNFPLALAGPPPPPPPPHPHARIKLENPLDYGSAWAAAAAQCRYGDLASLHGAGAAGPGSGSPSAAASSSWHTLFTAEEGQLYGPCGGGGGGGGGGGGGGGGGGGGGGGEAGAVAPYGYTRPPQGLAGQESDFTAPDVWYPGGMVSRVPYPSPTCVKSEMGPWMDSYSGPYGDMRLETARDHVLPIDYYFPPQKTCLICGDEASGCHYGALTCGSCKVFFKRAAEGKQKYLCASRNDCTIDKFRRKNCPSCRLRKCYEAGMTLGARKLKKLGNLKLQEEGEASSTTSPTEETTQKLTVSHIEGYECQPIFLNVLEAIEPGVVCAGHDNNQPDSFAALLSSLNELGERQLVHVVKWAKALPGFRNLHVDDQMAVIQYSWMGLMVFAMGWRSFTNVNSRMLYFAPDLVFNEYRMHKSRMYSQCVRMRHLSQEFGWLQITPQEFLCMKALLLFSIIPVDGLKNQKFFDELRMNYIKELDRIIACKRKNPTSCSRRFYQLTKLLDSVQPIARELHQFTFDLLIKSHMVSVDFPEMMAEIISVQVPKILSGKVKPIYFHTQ
Summary of the method: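 Western blot readout: AR band grayscale normalised to GAPDH, used to derive degradation rate. Lysates came from VCaP cells exposed to compound for 8 h, with solvent controls run in parallel.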

LNCaP FGC cells = assay: Inhibition of proliferation of LNCaP cells (WST-8); settings: Homo sapiens, LNCaP, 96 h, LNCaP FGC cells, 96 hours, WST-8 absorbance at 450 nm; read-out: IC50 for inhibiting the proliferation of LNCaP cells
Procedure: The cells were cultured in a cell culture incubator with 5% CO2 at 37° C. overnight. […] On the sixth day, 96 well plates were taken out, and 20 μL of WST-8 (Beytime, C0040) reagent was added to each well.

AR protein [2] = target: T2, AR protein (Homo sapiens, UniProt P10275, T878A); assay: Degradation of AR protein in LNCaP cells (Western blot); settings: LNCaP cells, 8 hours, Western blot grayscale, GAPDH internal reference; for inhibition at 0.01 µM: compound 10 nM, read-out: Degradation rates of the AR protein in LNCaP cells, 10 nM (%); for inhibition at 0.1 µM: compound 100 nM, read-out: Degradation rates of the AR protein in LNCaP cells, 100 nM (%)
T2 construct: degradation activity of the compounds disclosed in the present disclosure on AR protein in LNCaP cells; host or cells: LNCaP FGC
T2 sequence (P10275 1-920 T878A): T1 sequence (P10275 1-920) with T878A
Summary of the method: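 Percent AR degradation was derived from GAPDH-normalised Western blot band intensities (infrared detection) in LNCaP lysates.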

VCaP cells = assay: Inhibition of proliferation of VCaP cells (WST-8); settings: Homo sapiens; VCaP cells, 168 hours, WST-8 absorbance at 450 nm; read-out: IC50 for inhibiting the proliferation of VCaP cells
Summary of the method: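 Proliferation was read by WST-8 on day nine. Cells were VCaP FGC, seeded at 15000 cells per well in 10% FBS DMEM and kept at 37° C with 5% CO2.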

| SMILES | inhibition at 0.01 µM (AR protein [1]) [%] | inhibition at 0.1 µM (AR protein [1]) [%] | IC50 (LNCaP FGC cells) [nM] | inhibition at 0.01 µM (AR protein [2]) [%] | inhibition at 0.1 µM (AR protein [2]) [%] | IC50 (VCaP cells) [nM] |
| --- | --- | --- | --- | --- | --- | --- |
| COc1cc(O[C@H]2CC[C@H](NC(=O)c3ccc(N4CCC(CN5CCC6(CC5)COc5c6ccc6c5C(=O)N(C5CCC(=O)NC5=O)C6=O)(OC)CC4)nn3)CC2)ccc1C#N (stereo partly drawn) [Compound 272] | 38 | 75 | 100 | 45 | 52 | 63 |
| COc1cc(O[C@H]2C(C)(C)[C@H](NC(=O)c3ccc(N4CCC(C)(CN5CCC6(CC5)COc5cc7c(cc5C6)C(=O)N(C5CCC(=O)NC5=O)C7=O)CC4)cc3)C2(C)C)ccc1C#N (stereo partly drawn) [Compound 289] | -21 | 15 | 66000 | 27 | 63 | 82 |
| N#Cc1ccc(O[C@H]2CC[C@H](NC(=O)c3ccc(N4CCC(O)(CN5CCC6(CC5)COc5c6ccc6c5C(=O)N(C5CCC(=O)NC5=O)C6=O)CC4)nn3)CC2)cc1Cl (stereo partly drawn) [Compound 213] | 32 | 75 | 1320 | 47 | 67 | 19 |
| N#Cc1ccc(O[C@H]2CC[C@H](NC(=O)c3ccc(N4CCC5(CC(N6CCC7(CCc8cc9c(cc8O7)C(=O)N(C7CCC(=O)NC7=O)C9=O)CC6)C5)C4)nn3)CC2)cc1Cl (stereo partly drawn) [Compound 35] | 47 | 58 | 800 | 17 | 50 | 500 |
| N#Cc1ccc(O[C@H]2CC[C@H](NC(=O)c3ccc(N4CCC5(CCC(N6CCC7(CC6)COc6ccc8c(c6C7)C(=O)N(C6CCC(=O)NC6=O)C8)CC5)CC4)nn3)CC2)cc1Cl (stereo partly drawn) [Compound 149] | -4 | 26 | 3730 | 1 | 1 | 3170 |
| COc1cc(O[C@H]2CC[C@H](NC(=O)c3ccc(N4CCC(F)(CN5CC6(CCc7cc8c(cc7O6)CN(C6CCC(=O)NC6=O)C8=O)C5)CC4)nn3)CC2)ccc1C#N (stereo partly drawn) [Compound 209] | 39 | 67 | 1760 | 49 | 25 | 2 |
| COC1(CN2CCC3(CC2)COc2cc4c(cc2C3)C(=O)N(C2CCC(=O)NC2=O)C4=O)CCN(c2ccc(C(=O)NC3CCC(Oc4ccc(C#N)c(Cl)c4)CC3)nn2)CC1 (stereo not drawn) [Compound 69] | 50 | 78 | 390 | 26 | 64 | 960 |
| N#Cc1ccc(O[C@H]2CC[C@H](NC(=O)c3ccc(N4CCC(CN5CCC6(CC5)COc5cc7c(cc5C6)C(=O)N(C5CCC(=O)NC5=O)C7=O)CC4)nn3)CC2)cc1Cl (stereo partly drawn) [Compound 72] | 75 | 85 | 50 | 81 | 92 | 100 |
| COc1cc(O[C@H]2C(C)(C)[C@H](NC(=O)c3ccc(N4CCC(CN5CCC6(CC5)COc5c6ccc6c5C(=O)N(C5CCC(=O)NC5=O)C6=O)CC4)cc3)C2(C)C)ccc1C#N (stereo partly drawn) [Compound 234] | 35 | 72 | 270 | 58 | 81 | 36 |
| COc1cc(O[C@H]2C(C)(C)[C@H](NC(=O)c3ccc(N4CCC(CN5CC6(CCc7cc8c(cc7O6)C(=O)N(C6CCC(=O)NC6=O)C8=O)C5)CC4)cc3)C2(C)C)ccc1C#N (stereo partly drawn) [Compound 277] | 7 | 54 | 10700 | 16 | 60 | 73 |
| N#Cc1ccc(O[C@H]2CC[C@H](NC(=O)c3ccc(N4CC5(CC(N6CCC7(CC6)COc6cc8c(cc67)C(=O)N(C6CCC(=O)NC6=O)C8=O)C5)C4)nn3)CC2)cc1Cl (stereo partly drawn) [Compound 50] | 77 | 88 | 1200 | 66 | 86 | 28 |
| CC1(CN2CCC3(CCc4cc5c(cc4O3)C(=O)N(C3CCC(=O)NC3=O)C5=O)CC2)CCN(c2ccc(C(=O)N[C@H]3CC[C@H](Oc4ccc(C#N)c(Cl)c4)CC3)nn2)CC1 (stereo partly drawn) [Compound 17] | 39 | 80 | 800 | 35 | 65 | 580 |
| COc1cc(O[C@H]2C(C)(C)[C@H](NC(=O)c3ccc(N4CCC(F)(CN5CCC6(CC5)COc5cc7c(cc56)C(=O)N(C5CCC(=O)NC5=O)C7=O)CC4)cc3)C2(C)C)ccc1C#N (stereo partly drawn) [Compound 273] | -20 | 7 | 96400 | 2 | 26 | 970 |
| N#Cc1ccc(O[C@H]2CC[C@H](NC(=O)c3ccc(N4CC[C@H](CN5CCC6(CC5)COc5cc7c(cc5C6)C(=O)N(C5CCC(=O)NC5=O)C7=O)C4)nn3)CC2)cc1Cl (stereo partly drawn) [Compound 74] | 47 | 65 | 600 | 39 | 79 | 600 |
| N#Cc1ccc(O[C@H]2CC[C@H](NC(=O)c3ccc(N4CCC5(CC(N6CCC7(CC6)COc6cc8c(cc67)C(=O)N(C6CCC(=O)NC6=O)C8=O)C5)C4)nn3)CC2)cc1Cl (stereo partly drawn) [Compound 54] | 75 | 85 | 1700 | 24 | 76 | 47 |
| COc1cc(OC2C(C)(C)C(NC(=O)c3ccc(N4CCC(CN5CCC6(CC5)COc5cc7c(cc56)C(=O)N(C5CCC(=O)NC5=O)C7=O)CC4)cc3)C2(C)C)ccc1C#N (stereo not drawn) [Compound 280] | 15 | 77 | 9250 | 36 | 52 | 45 |
